Patent EP3782997A1, “FUSED PYRIMIDINE COMPOUNDS AND PHARMACEUTICAL COMPOSITIONS THEREOF FOR THE TREATMENT OF FIBROTIC DISEASES” (Galapagos N.V., priority 2019, dated 2021)

biological target: hENPP2 (Homo sapiens, UniProt Q13822); test: Human ENPP2 (hENPP2) biochemical assay using LPC as substrate; conditions: 150 µM LPC (palmitoyl 16:0), 37°C for 30 min
Procedure: The principle of the assay conswasts in quantifying the released choline with an enzymatic method using choline oxidase and peroxidase. Choline oxydation by choline oxydase releases betaine and peroxide. The latter was quantified in presence of HRP that converts the peroxide detection agent TOOS (CAS# 82692-93-1) and 4-aminoantipyrine into quinoneimine dye. The appearance of quinoneimine dye was measured spectrophotometrically at 555 nm and was proportional to the amount of choline released by ENPP2. Inhibition of ENPP2 results in a decrease of the signal.
Compound IC50 values were determined in a hENPP2 (UniProtKB/SwwassProt Sequence ref Q13822) biochemical assay using LPC as substrate.
5 µL of a dilution series of compound, starting from 50 µM highest concentration, 1/3 dilution, was added to the wells. hENPP2 was used at a final concentration of 1 µg/mL or 3 µg/mL (it will be appreciated by the skilled person that the potency read out was independent of the enzyme concentration). The enzyme was diluted in 50 mM Trwas-HCl pH 8.5, 500 mM NaCl, 5 mM KCl, 10 mM CaCl2, 0.1% fatty acid free BSA in a total volume of 10 µL. The reaction was started by the addition of 10 µL of 150 µM LPC (palmitoyl 16:0; Avanti Polar Lipids, Inc., Cat# 855675) diluted in the same buffer as described above and the mixture was incubated at 37°C for 30 min. The reaction was terminated and choline quantified by the addition of a 25 µL of a mixture containing 0.6 U/mL of choline oxidase, 0.6 U/mL of peroxydase, 1.8 mM TOOS, 1.2 mM amino-antipyrine, 20 mM EGTA (stop-developer solution) diluted in the buffer described above. […] was read on an Envision plate reader (PerkinElmer, Inc.) after an incubation of 30 min at room temperature (excitation 555 nm).

| Compound | IC50 [nM] |
| --- | --- |
| Cc1cc(C)cc(Nc2ncc3c(n2)CCN(C2CCN(C(=O)c4ccc5[nH]nnc5c4)[C@@H](C)C2)CC3)c1 (stereo partly drawn) [Cpd 142, 1H-benzotriazol-5-yl-[(2S)-4-[2-(3,5-dimethylanilino)-5,6,8,9-tetrahydropyrimido[4,5-d]azepin-7-yl]-2-methyl-1-piperidyl]methanone] | 100 to 500 |
| Cc1cc(C)cc(Nc2ncc3c(n2)CN([C@@H]2CCN(C(=O)c4cccc(C(=O)O)c4)[C@H](C)C2)C3)c1 [Cpd 146, 3-[(2R,4R)-4-[2-(3,5-dimethylanilino)-5,7-dihydropyrrolo[3,4-d]pyrimidin-6-yl]-2-methyl-piperidine-1-carbonyl]benzoic acid] | > 1000 |
| Cc1cc(C)cc(Nc2ncc3c(n2)CN([C@@H]2CCN(C(=O)c4ccc(-c5nnn[nH]5)cc4)[C@H](C)C2)C3)c1 [Cpd 153, [(2R,4R)-4-[2-(3,5-dimethylanilino)-5,7-dihydropyrrolo[3,4-d]pyrimidin-6-yl]-2-methyl-1-piperidyl]-[4-(1H-tetrazol-5-yl)phenyl]methanone] | > 1000 |
| Cc1cc(C)cc(Nc2ncc3c(n2)CCN(C2(C)CCN(C(=O)c4ccc5[nH]nnc5c4)CC2)C3)c1 [Cpd 158, 1H-benzotriazol-5-yl-[4-[2-(3,5-dimethylanilino)-7,8-dihydro-5H-pyrido[4,3-d]pyrimidin-6-yl]-4-methyl-1-piperidyl]methanone] | 0.01 to 100 |
| C[C@@H]1C[C@H](N2Cc3cnc(Nc4ccc(C#N)cc4)nc3C2)CCN1C(=O)c1ccc2[nH]nnc2c1 [Cpd 160, 4-[[6-[(2R,4R)-1-(1H-benzotriazole-5-carbonyl)-2-methyl-4-piperidyl]-5,7-dihydropyrrolo[3,4-d]pyrimidin-2-yl]amino]benzonitrile] | 0.01 to 100 |
| Cc1cc(C)cc(Nc2ncc3c(n2)CCN(C2CN(C(=O)c4ccc5[nH]nnc5c4)C2)C3)c1 [compound 2, 1H-benzotriazol-5-yl-[3-[2-(3,5-dimethylanilino)-7,8-dihydro-5H-pyrido[4,3-d]pyrimidin-6-yl]azetidin-1-yl]methanone] | 100 to 500 |
| Cc1cc(C)cc(Nc2ncc3c(n2)CCN(C2CCN(C(=O)c4ccc5[nH]c(=O)oc5c4)C2)C3)c1 (stereo not drawn) [compound 4, 6-[3-[2-(3,5-dimethylanilino)-7,8-dihydro-5H-pyrido[4,3-d]pyrimidin-6-yl]pyrrolidine-1-carbonyl]-3H-1,3-benzoxazol-2-one] | 0.01 to 100 |
| Cc1cc(C)cc(Nc2ncc3c(n2)CCN(C2CCN(C(=O)c4ccc5[nH]nnc5c4)C2)C3)c1 (stereo not drawn) [compound 5, 1H-benzotriazol-5-yl-[3-[2-(3,5-dimethylanilino)-7,8-dihydro-5H-pyrido[4,3-d]pyrimidin-6-yl]pyrrolidin-1-yl]methanone] | 100 to 500 |
| O=C(c1ccc2[nH]c(=O)oc2c1)N1CC(N2Cc3cnc(Nc4cc(C(F)(F)F)cc(C(F)(F)F)c4)nc3C2)C1 [compound 6, 6-[3-[2-[3,5-bis(trifluoromethyl)anilino]-5,7-dihydropyrrolo[3,4-d]pyrimidin-6-yl]azetidine-1-carbonyl]-3H-1,3-benzoxazol-2-one] | 0.01 to 100 |
| Cc1cc(C)cc(Nc2ncc3c(n2)CCN(C2CCN(C(=O)c4ccc5[nH]c(=O)oc5c4)CC2)C3)c1 [compound 7, 6-[4-[2-(3,5-dimethylanilino)-7,8-dihydro-5H-pyrido[4,3-d]pyrimidin-6-yl]piperidine-1-carbonyl]-3H-1,3-benzoxazol-2-one] | 100 to 500 |
| O=C(c1ccc2[nH]c(=O)oc2c1)N1CC(N2CCc3nc(Nc4cc(C(F)(F)F)cc(C(F)(F)F)c4)ncc3C2)C1 [compound 8, 6-[3-[2-[3,5-bis(trifluoromethyl)anilino]-7,8-dihydro-5H-pyrido[4,3-d]pyrimidin-6-yl]azetidine-1-carbonyl]-3H-1,3-benzoxazol-2-one] | 0.01 to 100 |
| O=C(c1ccc2[nH]nnc2c1)N1CC(N2Cc3cnc(Nc4cc(C(F)(F)F)cc(C(F)(F)F)c4)nc3C2)C1 [compound 9, 1H-benzotriazol-5-yl-[3-[2-[3,5-bis(trifluoromethyl)anilino]-5,7-dihydropyrrolo[3,4-d]pyrimidin-6-yl]azetidin-1-yl]methanone] | 0.01 to 100 |
| Cc1cc(C)cc(Nc2ncc3c(n2)CN(C2CCN(C(=O)c4ccc5[nH]nnc5c4)CC2)C3)c1 [compound 10, 1H-benzotriazol-5-yl-[4-[2-(3,5-dimethylanilino)-5,7-dihydropyrrolo[3,4-d]pyrimidin-6-yl]-1-piperidyl]methanone] | 0.01 to 100 |
| Cc1cc(C)cc(Nc2ncc3c(n2)CN(C2CCN(C(=O)c4ccc5[nH]c(=O)oc5c4)CC2)C3)c1 [compound 11, 6-[4-[2-(3,5-dimethylanilino)-5,7-dihydropyrrolo[3,4-d]pyrimidin-6-yl]piperidine-1-carbonyl]-3H-1,3-benzoxazol-2-one] | 0.01 to 100 |
| Cc1cc(C)cc(Nc2ncc3c(n2)CN(C2CCN(C(=O)c4ccc5[nH]c(=O)oc5c4)C2)C3)c1 (stereo not drawn) [compound 12, 6-[3-[2-(3,5-dimethylanilino)-5,7-dihydropyrrolo[3,4-d]pyrimidin-6-yl]pyrrolidine-1-carbonyl]-3H-1,3-benzoxazol-2-one] | 0.01 to 100 |
| Cc1cc(C)cc(Nc2ncc3c(n2)CN(C2CCN(C(=O)c4ccc5[nH]nnc5c4)C2)C3)c1 (stereo not drawn) [compound 13, 1H-benzotriazol-5-yl-[3-[2-(3,5-dimethylanilino)-5,7-dihydropyrrolo[3,4-d]pyrimidin-6-yl]pyrrolidin-1-yl]methanone] | 100 to 500 |
| O=C(c1ccc2[nH]c(=O)oc2c1)N1CC(N2CCc3nc(Nc4cc(Cl)cc(C(F)(F)F)c4)ncc3C2)C1 [compound 14, 6-[3-[2-[3-chloro-5-(trifluoromethyl)anilino]-7,8-dihydro-5H-pyrido[4,3-d]pyrimidin-6-yl]azetidine-1-carbonyl]-3H-1,3-benzoxazol-2-one] | 0.01 to 100 |

Other lines, results leading:

| IC50 [nM] | Compound |
| --- | --- |
| 0.01 to 100 | Cc1cc(Cl)cc(Nc2ncc3c(n2)CCN(C2CN(C(=O)c4ccc5[nH]c(=O)oc5c4)C2)C3)c1 [compound 15, 6-[3-[2-(3-chloro-5-methyl-anilino)-7,8-dihydro-5H-pyrido[4,3-d]pyrimidin-6-yl]azetidine-1-carbonyl]-3H-1,3-benzoxazol-2-one] |
| 100 to 500 | Cc1cc(Cl)cc(Nc2ncc3c(n2)CCN(C2CN(C(=O)c4ccc5[nH]nnc5c4)C2)C3)c1 [compound 16, 1H-benzotriazol-5-yl-[3-[2-(3-chloro-5-methyl-anilino)-7,8-dihydro-5H-pyrido[4,3-d]pyrimidin-6-yl]azetidin-1-yl]methanone] |
| 0.01 to 100 | O=C(c1ccc2[nH]c(=O)oc2c1)N1CC(N2Cc3cnc(Nc4cc(Cl)cc(C(F)(F)F)c4)nc3C2)C1 [compound 17, 6-[3-[2-[3-chloro-5-(trifluoromethyl)anilino]-5,7-dihydropyrrolo[3,4-d]pyrimidin-6-yl]azetidine-1-carbonyl]-3H-1,3-benzoxazol-2-one] |
| 0.01 to 100 | Cc1cc(C)cc(Nc2ncc3c(n2)CN(C2CN(C(=O)c4ccc5[nH]nnc5c4)C2)C3)c1 [compound 18, 1H-benzotriazol-5-yl-[3-[2-(3,5-dimethylanilino)-5,7-dihydropyrrolo[3,4-d]pyrimidin-6-yl]azetidin-1-yl]methanone] |
| 100 to 500 | Cc1cc(C)cc(Nc2ncc3c(n2)CN(C2CN(C(=O)c4ccc5[nH]ncc5c4)C2)C3)c1 [compound 19, [3-[2-(3,5-dimethylanilino)-5,7-dihydropyrrolo[3,4-d]pyrimidin-6-yl]azetidin-1-yl]-(1H-indazol-5-yl)methanone] |
| > 1000 | Cc1cc(C)cc(Nc2ncc3c(n2)CN(C2CN(C(=O)c4cccc(S(N)(=O)=O)c4)C2)C3)c1 [compound 20, 3-[3-[2-(3,5-dimethylanilino)-5,7-dihydropyrrolo[3,4-d]pyrimidin-6-yl]azetidine-1-carbonyl]benzenesulfonamide] |
| 0.01 to 100 | COc1cc(Nc2ncc3c(n2)CN(C2CN(C(=O)c4ccc5[nH]c(=O)oc5c4)C2)C3)cc(OC)c1 [compound 21, 6-[3-[2-(3,5-dimethoxyanilino)-5,7-dihydropyrrolo[3,4-d]pyrimidin-6-yl]azetidine-1-carbonyl]-3H-1,3-benzoxazol-2-one] |
| 0.01 to 100 | O=C(c1ccc2[nH]nnc2c1)N1CC(N2Cc3cnc(Nc4cc(Cl)cc(C(F)(F)F)c4)nc3C2)C1 [compound 22, 1H-benzotriazol-5-yl-[3-[2-[3-chloro-5-(trifluoromethyl)anilino]-5,7-dihydropyrrolo[3,4-d]pyrimidin-6-yl]azetidin-1-yl]methanone] |
| 0.01 to 100 | COc1cc(C)cc(Nc2ncc3c(n2)CN(C2CN(C(=O)c4ccc5[nH]nnc5c4)C2)C3)c1 [compound 24, 1H-benzotriazol-5-yl-[3-[2-(3-methoxy-5-methyl-anilino)-5,7-dihydropyrrolo[3,4-d]pyrimidin-6-yl]azetidin-1-yl]methanone] |
| > 1000 | Cc1cc(C)cc(Nc2ncc3c(n2)CN(C2CN(C(=O)c4ccc(=O)[nH]c4)C2)C3)c1 [compound 26, 5-[3-[2-(3,5-dimethylanilino) -5,7-dihydropyrrolo[3,4-d]pyrimidin-6-yl]azetidine-1-carbonyl]-1H-pyridin-2-one] |
